What was measured:
[1] = matrix of U.S. Pat. No. 5,252,334, without drug delivery rate enhancers; cited from earlier work
[2] = test system: full thickness cutaneous excisional wounds (punch biopsies); test: Wound width three days after punch biopsies in human volunteers (histological assessment); assay type: in vivo; conditions: day 3; for average wound width: single intradermal injection 10-30 min before 3 mm punch biopsy
From the text: A single site, double-blind study was undertaken to illustrate the efficacy of medicaments of the invention in promoting contraction of punch biopsy wounds in healthy male and post-menopausal female subjects. The control treatments used in this study were Placebo (vehicle) and Standard Care (moist wound healing dressings).
44 healthy subjects were recruited to the study, of whom, 40 were healthy males (aged 18-75years) and 4 were post-menopausal females (aged 53-69 years). The average age of subjects recruited to this study was 42 years. The post-menopausal status of female subjects was confirmed by quantification of serum levels of estradiol and follicle stimulating hormone (FSH). Serum levels of estradiol were required to be <90 pmol/L, and follicle stimulating hormone levels >31 IU/L.
Before wounding, each subject received either a medicament of the invention (providing a 100 μl intradermal injection of a solution comprising 400 ng of 17β-oestradiol in a diluent comprising PBS and 5% v/v ethanol), or a control medicament (two used, providing a 100 μl intradermal injection of a solution comprising either 20 ng or 100 ng respectively of 17β-oestradiol in a diluent comprising PBS and 5% v/v ethanol). The experimental medicaments (either of the invention or control) were administered intradermally as a single dose at a volume of 100 μl per wound site, 10-30 minutes before wounding to sites on the upper, inner aspect of the arm. This administration was sufficient to prophylactically “prime” an area of 1 cm^2 of unwounded skin prior to wounding. Wounds were made with a 3 mm punch biopsy.
Biopsy sites were excised, using a 5 mm punch biopsy, three days after wounding. Excised wounds were preserved for histological assessment of wound width. All histological assessments were made using preserved 5 micron-thickness wound sections taken from the widest part of each excised biopsy site. Sections were stained with Haematoxylin and Eosin to aid visualisation of structural features, and measurements made using image analysis software. The wound diameter is the linear total wound diameter of the wound section measured in micrometres. The average wound diameter value was calculated from the 44 wounds of each treatment group.

[3] = 100 μg of oestradiol applied in a gel; six hours from application; cited from earlier work

Structure (SMILES): C[C@]12CC[C@@H]3c4ccc(O)cc4CC[C@H]3[C@@H]1CC[C@@H]2O [17β-oestradiol]
- rate of administration per hour per square centimetre of skin [1]: approximately 0.2 μg
- average wound width ([2]; 20 ng 17β-oestradiol in 100 μl PBS/5% v/v ethanol, control medicament): 2626 μm
- average wound width ([2]; 100 ng 17β-oestradiol in 100 μl PBS/5% v/v ethanol, control medicament): 2612 μm
- average wound width ([2]; 400 ng 17β-oestradiol in 100 μl PBS/5% v/v ethanol, medicament of the invention): 2480 μm
- wound width compared to control treated or untreated wounds ([2]; 400 ng 17β-oestradiol, intradermal): significantly decreased
- amount of applied oestradiol found in the skin or having passed through the skin [3]: 15.7 µg

Source: patent US20080153796A1, “Promotion of wound contraction” (RENOVO LIMITED, priority 2006, published 2008)
